{"source": "PubChem BioAssay (NCI)", "assay_in_all_cases": "NCI tumour cell line growth inhibition, 48 h", "key": {"OVCAR-3 ovarian": {"test_system": "OVCAR-3 ovarian"}, "ACHN renal": {"test_system": "ACHN renal"}, "HOP-92 NSCLC": {"test_system": "HOP-92 NSCLC"}, "SK-MEL-5 melanoma": {"test_system": "SK-MEL-5 melanoma"}, "SF-295 CNS": {"test_system": "SF-295 CNS"}, "SR leukemia": {"test_system": "SR leukemia"}, "SF-539 CNS": {"test_system": "SF-539 CNS"}, "SW-620 colon": {"test_system": "SW-620 colon"}, "MDA-MB-435": {"test_system": "MDA-MB-435"}, "K-562 leukemia": {"test_system": "K-562 leukemia"}, "SNB-19 CNS": {"test_system": "SNB-19 CNS"}, "NCI-H226 lung": {"test_system": "NCI-H226 lung"}, "HL-60(TB) leukemia": {"test_system": "HL-60(TB) leukemia"}, "SK-MEL-28 melanoma": {"test_system": "SK-MEL-28 melanoma"}, "RPMI-8226 leukemia": {"test_system": "RPMI-8226 leukemia"}, "TK-10 renal": {"test_system": "TK-10 renal"}, "OVCAR-5 ovarian": {"test_system": "OVCAR-5 ovarian"}, "SN12C renal": {"test_system": "SN12C renal"}, "DU-145 prostate": {"test_system": "DU-145 prostate"}, "UACC-62 melanoma": {"test_system": "UACC-62 melanoma"}, "A549 NSCLC": {"test_system": "A549 NSCLC"}, "IGROV1 ovarian": {"test_system": "IGROV1 ovarian"}, "PC-3 prostate": {"test_system": "PC-3 prostate"}, "M14 melanoma": {"test_system": "M14 melanoma"}, "NCI-H23 lung": {"test_system": "NCI-H23 lung"}, "MOLT-4 leukemia": {"test_system": "MOLT-4 leukemia"}, "HT29 colon": {"test_system": "HT29 colon"}, "KM12 colon": {"test_system": "KM12 colon"}, "SF-268 CNS": {"test_system": "SF-268 CNS"}}, "note": "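Where inhibition never reached the appropriate level, the endpoint shown equals the highest concentration tested. Otherwise, values were interpolated linearly from a five-concentration, 48-hour dose response in 96-well plates. Abbreviation: GI50, concentration required for 50% inhibition of growth. TGI is the concentration that stops growth completely.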"}
{"molecule": "COc1ccc2c(c1)C(=Nc1ccc(F)c(F)c1F)c1c-2c(Nc2ccc(F)c(F)c2F)nc2ccccc12", "values": [{"measurement": "GI50", "setting": "OVCAR-3 ovarian", "result": 46.6, "unit": "µM"}, {"measurement": "TGI", "setting": "OVCAR-3 ovarian", "result": "> 89.1", "unit": "µM"}, {"measurement": "GI50", "setting": "ACHN renal", "result": 41.2, "unit": "µM"}, {"measurement": "TGI", "setting": "ACHN renal", "result": "> 100", "unit": "µM"}, {"measurement": "GI50", "setting": "HOP-92 NSCLC", "result": 48, "unit": "µM"}, {"measurement": "TGI", "setting": "HOP-92 NSCLC", "result": "> 100", "unit": "µM"}, {"measurement": "GI50", "setting": "SK-MEL-5 melanoma", "result": "> 74.4", "unit": "µM"}, {"measurement": "TGI", "setting": "SK-MEL-5 melanoma", "result": "> 100", "unit": "µM"}, {"measurement": "GI50", "setting": "SF-295 CNS", "result": 41.3, "unit": "µM"}, {"measurement": "TGI", "setting": "SF-295 CNS", "result": "> 100", "unit": "µM"}, {"measurement": "TGI", "setting": "SR leukemia", "result": 1.41, "unit": "µM"}, {"measurement": "GI50", "setting": "SF-539 CNS", "result": 37.7, "unit": "µM"}, {"measurement": "TGI", "setting": "SF-539 CNS", "result": "> 83.6", "unit": "µM"}, {"measurement": "GI50", "setting": "SW-620 colon", "result": "> 59.3", "unit": "µM"}, {"measurement": "TGI", "setting": "SW-620 colon", "result": "> 100", "unit": "µM"}, {"measurement": "GI50", "setting": "MDA-MB-435", "result": "> 70.7", "unit": "µM"}, {"measurement": "TGI", "setting": "MDA-MB-435", "result": "> 100", "unit": "µM"}, {"measurement": "GI50", "setting": "K-562 leukemia", "result": 29.5, "unit": "µM"}, {"measurement": "TGI", "setting": "K-562 leukemia", "result": "> 100", "unit": "µM"}, {"measurement": "GI50", "setting": "SNB-19 CNS", "result": 33.1, "unit": "µM"}, {"measurement": "TGI", "setting": "SNB-19 CNS", "result": "> 100", "unit": "µM"}, {"measurement": "GI50", "setting": "NCI-H226 lung", "result": "> 44.4", "unit": "µM"}, {"measurement": "TGI", "setting": "NCI-H226 lung", "result": "> 84.1", "unit": "µM"}, {"measurement": "TGI", "setting": "HL-60(TB) leukemia", "result": 0.0392, "unit": "µM"}, {"measurement": "GI50", "setting": "SK-MEL-28 melanoma", "result": 28, "unit": "µM"}, {"measurement": "TGI", "setting": "SK-MEL-28 melanoma", "result": "> 100", "unit": "µM"}, {"measurement": "GI50", "setting": "RPMI-8226 leukemia", "result": 42.7, "unit": "µM"}, {"measurement": "TGI", "setting": "RPMI-8226 leukemia", "result": "> 100", "unit": "µM"}, {"measurement": "GI50", "setting": "TK-10 renal", "result": 25.4, "unit": "µM"}, {"measurement": "TGI", "setting": "TK-10 renal", "result": "> 90.9", "unit": "µM"}, {"measurement": "GI50", "setting": "OVCAR-5 ovarian", "result": "> 46.6", "unit": "µM"}, {"measurement": "TGI", "setting": "OVCAR-5 ovarian", "result": "> 100", "unit": "µM"}, {"measurement": "GI50", "setting": "SN12C renal", "result": "> 58.6", "unit": "µM"}, {"measurement": "TGI", "setting": "SN12C renal", "result": "> 100", "unit": "µM"}, {"measurement": "GI50", "setting": "DU-145 prostate", "result": 49.8, "unit": "µM"}, {"measurement": "TGI", "setting": "DU-145 prostate", "result": "> 100", "unit": "µM"}, {"measurement": "GI50", "setting": "UACC-62 melanoma", "result": 23.8, "unit": "µM"}, {"measurement": "TGI", "setting": "UACC-62 melanoma", "result": "> 55.1", "unit": "µM"}, {"measurement": "GI50", "setting": "A549 NSCLC", "result": "> 59.3", "unit": "µM"}, {"measurement": "TGI", "setting": "A549 NSCLC", "result": "> 100", "unit": "µM"}, {"measurement": "GI50", "setting": "IGROV1 ovarian", "result": 15.9, "unit": "µM"}, {"measurement": "TGI", "setting": "IGROV1 ovarian", "result": "> 72.9", "unit": "µM"}, {"measurement": "GI50", "setting": "PC-3 prostate", "result": "> 56.7", "unit": "µM"}, {"measurement": "TGI", "setting": "PC-3 prostate", "result": "> 100", "unit": "µM"}, {"measurement": "GI50", "setting": "M14 melanoma", "result": 27.7, "unit": "µM"}, {"measurement": "TGI", "setting": "M14 melanoma", "result": "> 100", "unit": "µM"}, {"measurement": "GI50", "setting": "NCI-H23 lung", "result": "> 36.1", "unit": "µM"}, {"measurement": "TGI", "setting": "NCI-H23 lung", "result": "> 62.2", "unit": "µM"}, {"measurement": "GI50", "setting": "MOLT-4 leukemia", "result": 24.2, "unit": "µM"}, {"measurement": "TGI", "setting": "MOLT-4 leukemia", "result": "> 100", "unit": "µM"}, {"measurement": "GI50", "setting": "HT29 colon", "result": 36.6, "unit": "µM"}, {"measurement": "TGI", "setting": "HT29 colon", "result": "> 100", "unit": "µM"}, {"measurement": "GI50", "setting": "KM12 colon", "result": "> 71.1", "unit": "µM"}, {"measurement": "TGI", "setting": "KM12 colon", "result": "> 100", "unit": "µM"}, {"measurement": "GI50", "setting": "SF-268 CNS", "result": 36.8, "unit": "µM"}, {"measurement": "TGI", "setting": "SF-268 CNS", "result": "> 100", "unit": "µM"}]}
